# Assay results reported in patent US12416101B2, “Genetically-encoded macrocyclic peptide libraries bearing a pharmacophore” (THE GOVERNORS OF THE UNIVERSITY OF ALBERTA, priority 2018, dated 2025).
# Residues, ends and D or L forms follow the SMILES beside them.
# Tests used:
# [1] = Solubility in water; format: physicochemical
# [2] = test system: phage; experiment: Toxicity of hydrazines to phage, plaque forming assay; parameters: species or system bacteriophage
# Experimental: In the reaction between phage diketone and hydrazine, some hydrazine derivatives cause toxicity to phage, leading to elimination of >99.999% of infective phage particles in less than 5 minutes (as determined by plaque forming assay). For example, treating phage with 2 mM phenyl hydrazine for 2 minutes decreased the number of infective particles from 10^5 to zero. The source and mechanism of toxicity was not obvious and was difficult to systematize: it depended on the concentration of hydrazine and its nature, as well as some sporadic factors (preparation of solution). Toxicity dependence on concentration of hydrazine was not linear. In many cases, hydrazine was lethal to phage eliminating all infective particles before the reaction was completed. […] Optimal location conditions between phage-diketone and hydrazine derivatives are in the presence of 1-2 mM metal chelator such as EDTA.
solubility in water [1],Structure (SMILES),"decrease in the number of infective particles ([2]; 2 to 20 mM phenyl hydrazine in the presence of 1 to 2 mM EDTA, several hours)","number of infective particles after treatment ([2]; phage treated with 2 mM phenyl hydrazine for 2 minutes, starting number 10^5, no chelator)"
high,CC(C)[C@H](NC(=O)[C@H](CS)NC(=O)[C@H](CCC(N)=O)NC(=O)[C@@H](N)CO)C(=O)N[C@@H](CCCNC(=N)N)C(=O)N[C@@H](CO)C(=O)N[C@@H](CS)C(=O)O [SQCVRSC] (H-SQCVRSC-OH; N-terminus and C-terminus assumed),,
,NNc1ccccc1 [phenyl hydrazine],did not show any significant decrease,zero
